{
  "source": "patent US10080758B2",
  "about": "“Tosylate salt of N-[3-[(4aR,7aS)-2-amino-6-(5-fluoropyrimidin-2-yl)-4,4a,5,7-tetrahydropyrrolo[3,4-d][1,3]thiazin-7a-yl]-4-fluoro-phenyl]-5-methoxy-pyrazine-2-carboxamide” (Eli Lilly and Company, priority 2015, dated 2018)",
  "key": {"Abeta 1-x peptide": {"test_system": "Abeta 1-x peptide", "experiment": "In vivo inhibition of beta-secretase (brain Abeta 1-x lowering)", "set-up": "species or system mice", "conditions": "for Abeta 1-x peptide levels reduced, brain cortex / Abeta 1-x peptide levels reduced, brain hippocampus: three hours after administration, compared to vehicle-treated mice", "source_text": "Several animal models, including mouse, guinea pig, dog, and monkey, may be used to screen for inhibition of beta-secretase activity in vivo following compound treatment. Animals used in this invention can be wild type, transgenic, or gene knockout animals. For example, the PDAPP mouse model, prepared as described in Games et al., Nature 373, 523-527 (1995), and other non-transgenic or gene knockout animals are useful to analyze in vivo inhibition of Abeta and sAPPbeta production in the presence of inhibitory compounds. Generally, 2 to 12 month old PDAPP mice, gene knockout mice or non-transgenic animals are administered compound formulated in vehicles, such as corn oil, cyclodextran, phosphate buffers, […]®, or other suitable vehicles. One to twenty-four hours following the administration of compound, animals are sacrificed, and brains as well as cerebrospinal fluid and plasma are removed for analysis of Abetas, C99, and sAPP fragments. (See May, et al., Journal of Neuroscience, 31, 16507-16516 (2011)). For standard in vivo pharmacology studies, animals are dosed with various concentrations of compound and compared to a vehicle-treated control group dosed at the same time. For some time course studies, brain tissue, plasma, or cerebrospinal fluid is obtained from selected animals, beginning at time 0 to establish a baseline. Compound or appropriate vehicle is administered to other groups and sacrificed at various times after dosing. Brain tissue, plasma, or cerebrospinal fluid is obtained from selected animals and analyzed for the presence of APP cleavage products, including Abeta peptides, sAPPbeta, and other APP fragments, for example, by specific sandwich ELISA assays. At the end of the test period, animals are sacrificed and brain tissues, plasma, or cerebrospinal fluid are analyzed for the presence of Abeta peptides, C99, and sAPPbeta, as appropriate. Brain tissues of APP transgenic animals may also be analyzed for the amount of beta-amyloid plaques following compound treatment. “Abeta 1-x peptide” as used herein refers to the sum of Abeta species that begin with residue 1 and ending with a C-terminus greater than residue 28. This detects the majority of Abeta species and is often called “total Abeta”."}, "[1]": {"experiment": "Solvent retained in the crystal", "type": "physicochemical"}, "[2]": {"test_system": "Abeta released by primary cortical neurons from PDAPP embryos", "experiment": "PDAPP primary neuronal assay (Abeta ELISA)", "type": "cell-based", "conditions": "Mus musculus, Primary cortical neuron; 24 hours incubation; Abeta 1-42; Mean ± SEM; read-out: PDAPP Neuron A-beta (1-42) ELISA IC50"}, "[3]": {"experiment": "Solid state physical stability versus relative humidity", "type": "physicochemical", "conditions": "room temperature", "source_text": "Such physical instability is undesirable, particularly for a pharmaceutical drug substance or drug product, both of which are subject to regulatory controls regarding the solid state forms. […] As such, the tosylate salt of N-{3-[(4aR,7aS)-2-amino-6-(5-fluoropyrimidin-2-yl)-4a,5,6,7-tetrahydropyrrolo[3,4-d][1,3]thiazin-7a(4H)-yl]-4-fluoro-phenyl}-5-methoxypyrazine-2-carboxamide essentially avoids the humidity dependent phase transformations associated with the corresponding crystalline free base forms. […] The increased likelihood of the free base to undergo phase transitions during long term storage can lead to variability in properties, such as solubility or dissolution rate, which may compromise the performance of the drug product. It also poses the additional risk of collapse of the crystal structure(s) to an amorphous form or accumulation of defects and disorder, which could lead to chemical instability and reduced shelf-life of the drug product."}},
  "data": [
    {"smiles": "COc1cnc(C(=O)Nc2ccc(F)c([C@]34CN(c5ncc(F)cn5)C[C@H]3CSC(N)=N4)c2)cn1.Cl", "note": "[Preparation 46, N-[3-[(4aR,7aS)-2-Amino-6-(5-fluoropyrimidin-2-yl)-4,4a,5,7-tetrahydropyrrolo[3,4-d][1,3]thiazin-7a-yl]-4-fluoro-phenyl]-5-methoxy-pyrazine-2-carboxamide hydrochloride]", "values": [
      {"measurement": "Abeta 1-x peptide levels reduced, brain cortex", "setting": "Abeta 1-x peptide; 0.3 mg/kg oral dose", "value": "approximately 28%"},
      {"measurement": "Abeta 1-x peptide levels reduced, brain hippocampus", "setting": "Abeta 1-x peptide; 0.3 mg/kg oral dose", "value": "approximately 31%"},
      {"measurement": "Abeta 1-x peptide levels reduced, brain cortex", "setting": "Abeta 1-x peptide; 1 mg/kg oral dose", "value": "~42", "unit": "%"},
      {"measurement": "Abeta 1-x peptide levels reduced, brain hippocampus", "setting": "Abeta 1-x peptide; 1 mg/kg oral dose", "value": "~39", "unit": "%"},
      {"measurement": "Abeta 1-x peptide levels reduced, brain cortex", "setting": "Abeta 1-x peptide; 3 mg/kg oral dose", "value": "~64", "unit": "%"},
      {"measurement": "Abeta 1-x peptide levels reduced, brain hippocampus", "setting": "Abeta 1-x peptide; 3 mg/kg oral dose", "value": "~61", "unit": "%"},
      {"measurement": "amount of solvent retained in the crystal", "setting": "[1]", "value": "about 7.7%"},
      {"measurement": "IC50", "setting": "[2]", "value": 0.228, "unit": "nM"}
    ]},
    {"smiles": "COc1cnc(C(=O)Nc2ccc(F)c([C@]34CN(c5ncc(F)cn5)C[C@@H]3CN=C(N)S4)c2)cn1.O", "note": "[Crystalline Form 2, Crystalline Form 2 N-[3-[(4aR,7aS)-2-Amino-6-(5-fluoropyrimidin-2-yl)-4,4a,5,7-tetrahydropyrrolo[3,4-d][1,3]thiazin-7a-yl]-4-fluoro-phenyl]-5-methoxy-pyrazine-2-carboxamide (Hydrated)]", "values": [
      {"measurement": "relative humidity at which the crystal form is present / stable", "setting": "[3]", "value": "greater than 15 % relative humidity"},
      {"measurement": "relative humidity at which the crystal form is present / stable", "setting": "[3]; listed as crystalline form 2", "value": "above 15 % relative humidity"}
    ]},
    {"smiles": "COc1cnc(C(=O)Nc2ccc(F)c([C@]34CN(c5ncc(F)cn5)C[C@H]3CSC(N)=N4)c2)cn1", "note": "[N-[3-[(4aR,7aS)-2-amino-6-(5-fluoropyrimidin-2-yl)-4,4a,5,7-tetrahydropyrrolo[3,4-d][1,3]thiazin-7a-yl]-4-fluoro-phenyl]-5-methoxy-pyrazine-2-carboxamide]", "values": [
      {"measurement": "CNS penetration", "setting": "Abeta 1-x peptide", "value": "demonstrate CNS penetration"}
    ]}
  ]
}
